Several values for one entry are separate records, joined by “and”; a condition that tells them apart may be missing. Equal values may be shown once. Inconclusive results and toxic doses are left out.
Test system: P388 leukemia ip, CD2F1 mice, survival T/C
Assay: NCI In Vivo Anticancer Drug Screen. Data for tumor model P388 Leukemia (intraperitoneal) in CD2F1 (CDF1) mice
Details: endpoint: median survival time, higher = longer survival
How it was run: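 Mice carrying the transplanted tumor received test compound or vehicle. Survival was recorded in each group, and the value is the treated-group measurement divided by that of the vehicle-treated control group.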

[1] = dose: 50.0 mg/kg/injection, schedule: Q01DX005 (ip), vehicle: saline with Tween-80
[2] = dose: 50.0 mg/kg/injection, schedule: Q01DX009 (ip), vehicle: saline with Tween-80

## Cc1onc(-c2c(Cl)cccc2Cl)c1C(=O)OCCOc1ccc(C(F)(F)F)cc1[N+](=O)[O-]
dose: 60.0 mg/kg/injection, schedule: Q01DX005 (ip), vehicle: saline with Tween-80
  T/C: 91 % of control
dose: 120.0 mg/kg/injection, schedule: Q01DX005 (ip), vehicle: saline with Tween-80
  T/C: 98 % of control
dose: 240.0 mg/kg/injection, schedule: Q01DX005 (ip), vehicle: saline with Tween-80
  T/C: 92 % of control

## Cc1cc2c(c3c1c(=O)c1ccccc1n3C)C=CC(C)(C)O2
[1]
  T/C: 114 % of control
dose: 100.0 mg/kg/injection, schedule: Q01DX005 (ip), vehicle: saline with Tween-80
  T/C: 108 % of control
dose: 200.0 mg/kg/injection, schedule: Q01DX005 (ip), vehicle: saline with Tween-80
  T/C: 120 % of control
dose: 300.0 mg/kg/injection, schedule: Q01DX005 (ip), vehicle: saline with Tween-80
  T/C: 120 % of control

## COc1cc2c(c(OC)c1OC)-c1ccc(=O)c(OC)cc1C(N(C)C(C)=O)CC2 (stereo unspecified)
dose: 1.25 mg/kg/injection, schedule: Q01DX009 (ip), vehicle: Klucel (hydroxypropylcellulose) (HPC)
  T/C: 100 % of control
dose: 2.5 mg/kg/injection, schedule: Q01DX009 (ip), vehicle: Klucel (hydroxypropylcellulose) (HPC)
  T/C: 100 % of control
dose: 5.0 mg/kg/injection, schedule: Q01DX009 (ip), vehicle: Klucel (hydroxypropylcellulose) (HPC)
  T/C: 113 % of control
dose: 10.0 mg/kg/injection, schedule: Q01DX009 (ip), vehicle: Klucel (hydroxypropylcellulose) (HPC)
  T/C: 103 % of control
dose: 20.0 mg/kg/injection, schedule: Q01DX009 (ip), vehicle: Klucel (hydroxypropylcellulose) (HPC)
  T/C: 106 % of control

## C/C=C1/CC2C=Nc3cc(O)c(OC)cc3C(=O)N2C1 (stereo unspecified)
dose: 1.0 mg/kg/injection, schedule: Q01DX005 (ip), vehicle: saline + alcohol
  T/C: 157 % of control
dose: 50.0 micrograms/kg/injection, schedule: Q01DX005 (ip), vehicle: saline + alcohol
  T/C: 98 % of control
dose: 100.0 micrograms/kg/injection, schedule: Q01DX005 (ip), vehicle: saline + alcohol
  T/C: 110 % of control
dose: 200.0 micrograms/kg/injection, schedule: Q01DX005 (ip), vehicle: saline + alcohol
  T/C: 116 % of control
dose: 400.0 micrograms/kg/injection, schedule: Q01DX005 (ip), vehicle: saline + alcohol
  T/C: 120 % of control

## COc1ccc(C(=O)c2ccccc2)c(C(=O)O)c1
dose: 50.0 mg/kg/injection, schedule: Q01DX005 (ip), vehicle: Klucel (hydroxypropylcellulose) (HPC)
  T/C: 101 % of control
dose: 100.0 mg/kg/injection, schedule: Q01DX005 (ip), vehicle: Klucel (hydroxypropylcellulose) (HPC)
  T/C: 97 % of control
dose: 200.0 mg/kg/injection, schedule: Q01DX005 (ip), vehicle: Klucel (hydroxypropylcellulose) (HPC)
  T/C: 104 % of control

## CCOC(=O)Sc1ncnc2nc[nH]c12
dose: 33.0 mg/kg/injection, schedule: Q01DX009 (ip), vehicle: saline with Tween-80
  T/C: 113 % of control
[2]
  T/C: 122 % of control
dose: 75.0 mg/kg/injection, schedule: Q01DX009 (ip), vehicle: saline with Tween-80
  T/C: 122 % of control
dose: 100.0 mg/kg/injection, schedule: Q04DX003 (ip), vehicle: saline with Tween-80
  T/C: 104 % of control
dose: 200.0 mg/kg/injection, schedule: Q04DX003 (ip), vehicle: saline with Tween-80
  T/C: 108 % of control

## C/C(=N\NC(=S)N1CCC(C)CC1)c1nccnc1C
dose: 6.0 mg/kg/injection, schedule: Q01DX005 (ip), vehicle: Klucel (hydroxypropylcellulose) (HPC)
  T/C: 108 % of control
dose: 12.0 mg/kg/injection, schedule: Q01DX005 (ip), vehicle: Klucel (hydroxypropylcellulose) (HPC)
  T/C: 106 % of control
dose: 25.0 mg/kg/injection, schedule: Q01DX005 (ip), vehicle: Klucel (hydroxypropylcellulose) (HPC)
  T/C: 106 % of control

## Clc1ccc(-c2nnc(Nc3ccnc4cc(Cl)ccc34)s2)cc1
dose: 12.5 mg/kg/injection, schedule: Q01DX005 (ip), vehicle: saline with Tween-80
  T/C: 96 % of control
dose: 25.0 mg/kg/injection, schedule: Q01DX005 (ip), vehicle: saline with Tween-80
  T/C: 96 % of control
[1]
  T/C: 99 % of control and 102 % of control

## CCN(CC)c1nc(N(CC)CC)nc(N(CC)CC)n1
dose: 25.0 mg/kg/injection, schedule: Q01DX009 (ip), vehicle: saline with Tween-80
  T/C: 102 % of control
[2]
  T/C: 104 % of control
dose: 100.0 mg/kg/injection, schedule: Q01DX009 (ip), vehicle: saline with Tween-80
  T/C: 104 % of control
dose: 200.0 mg/kg/injection, schedule: Q01DX009 (ip), vehicle: saline with Tween-80
  T/C: 104 % of control

## O=C1CSC(=S)N1c1ccc(F)cc1
dose: 50.0 mg/kg/injection, schedule: Q01DX009 (ip), vehicle: suspension in saline
  T/C: 106 % of control
dose: 100.0 mg/kg/injection, schedule: Q01DX009 (ip), vehicle: suspension in saline
  T/C: 100 % of control
dose: 200.0 mg/kg/injection, schedule: Q01DX009 (ip), vehicle: suspension in saline
  T/C: 90 % of control

## O=C(N/N=C/c1ccccc1O)c1cccc([N+](=O)[O-])c1
dose: 100.0 mg/kg/injection, schedule: Q01DX009 (ip), vehicle: saline
  T/C: 99 % of control
dose: 200.0 mg/kg/injection, schedule: Q01DX009 (ip), vehicle: saline
  T/C: 100 % of control
dose: 400.0 mg/kg/injection, schedule: Q01DX009 (ip), vehicle: saline
  T/C: 91 % of control

Source: PubChem BioAssay AID330 (DTP/NCI, 2004)
